Tests used:
[1] = system: HCC827 (EGFR DelE746_A750); assay: Inhibition test for growth of cancer cell expressing EGFR (SRB), HCC827; assay type: cell-based; details: Homo sapiens, HCC827, 72 h, HCC827 cells, 72 hours, SRB; read-out: GI50 HCC827 EGFR DelE746_A750;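 also: cells in 96-well plates exposed to tenfold serial dilutions from 100 µM, fixed with trichloroacetic acid, SRB-stained, absorbance read at 540 nm, DMSO under 1%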
[2] = system: NCI-H1975 (EGFR L858R/T790M); assay: Inhibition test for growth of cancer cell expressing EGFR (MTS), NCI-H1975; assay type: cell-based; details: Homo sapiens; NCI-H1975 cells, 48 hours, MTS; read-out: GI50 NCI-H1975 EGFR L858R/T790M

Compound	GI50 [1]	GI50 [2]
C=CC(=O)Nc1cccc(Oc2nc(Nc3ccc(N4CCN(C)CC4)c(F)c3OC)nc3ccsc23)c1 [Example 6]	50 to 100 nM	< 50 nM
C=CC(=O)Nc1cccc(Oc2nc(Nc3ccc(N4CCN(CC(F)(F)F)CC4)cc3)nc3ccsc23)c1 [Example 16]	50 to 100 nM	< 50 nM
C=CC(=O)Nc1cccc(Oc2nc(Nc3ccc(N4CCN(S(=O)(=O)N(C)C)CC4)cc3)nc3ccsc23)c1 [Example 25]	50 to 100 nM	50 to 100 nM
C=CC(=O)Nc1cccc(Oc2nc(Nc3ccc(-n4ccnc4)cc3)nc3ccsc23)c1 [Example 56]	50 to 100 nM	< 50 nM
C=CC(=O)Nc1cccc(Oc2nc(Nc3ccc(O)cc3)nc3ccsc23)c1 [Example 60]	100 to 1000 nM	100 to 1000 nM
C=CC(=O)Nc1cccc(Oc2nc(Nc3ccc(OCCOC)cc3)nc3ccsc23)c1 [Example 61]	50 to 100 nM	< 50 nM
C=CC(=O)Nc1cccc(Oc2nc(Nc3ccc(S(C)(=O)=O)cc3)nc3ccsc23)c1 [Example 69]	50 to 100 nM	< 50 nM
C=CC(=O)Nc1cccc(Oc2nc(Nc3ccc(S(=O)(=O)NC4CC4)cc3)nc3ccsc23)c1 [Example 71]	50 to 100 nM	< 50 nM
C=CC(=O)Nc1cccc(Oc2nc(Nc3ccc(C(=O)NC)cc3)nc3ccsc23)c1 [Example 78]	50 to 100 nM	50 to 100 nM
C=CC(=O)Nc1cccc(Oc2nc(Nc3ccc(C(=O)N(C)C)cc3)nc3ccsc23)c1 [Example 84]	50 to 100 nM	50 to 100 nM
C=CC(=O)Nc1cccc(Oc2nc(Nc3ccc(C(=O)OCCCN(C)C)cc3)nc3ccsc23)c1 [Example 93]	50 to 100 nM	50 to 100 nM
C=CC(=O)Nc1cccc(Oc2nc(Nc3ccc(CCS(C)(=O)=O)cc3)nc3ccsc23)c1 [Example 97]	50 to 100 nM	< 50 nM
C=CC(=O)Nc1cccc(Oc2nc(Nc3ccc4c(c3)OCCO4)nc3ccsc23)c1 [Example 106]	50 to 100 nM	< 50 nM
C=CC(=O)Nc1cccc(Oc2nc(Nc3ccc4c(c3)CCCC(=O)N4C)nc3ccsc23)c1 [Example 108]	50 to 100 nM	50 to 100 nM
C=CC(=O)Nc1cccc(Oc2nc(Nc3ccc4c(ccn4C)c3)nc3ccsc23)c1 [Example 111]	50 to 100 nM	< 50 nM
C=CC(=O)Nc1cccc(Oc2nc(Nc3ccc(C4CCN(C)CC4)cc3OC)nc3ccsc23)c1 [Example 114]	50 to 100 nM	< 50 nM
C=CC(=O)Nc1cccc(Oc2nc(Nc3ccc(N4CCN(S(=O)(=O)CC)CC4)c(F)c3)nc3ccsc23)c1 [Example 121]	50 to 100 nM	< 50 nM
C=CC(=O)Nc1cccc(Oc2nc(Nc3ccc(N4CC(C)OC(C)C4)c(F)c3)nc3ccsc23)c1 (stereo not shown) [Example 123]	50 to 100 nM	50 to 100 nM
C=CC(=O)Nc1cccc(Oc2nc(Nc3ccc(OCCOC)c(F)c3)nc3ccsc23)c1 [Example 131]	50 to 100 nM	< 50 nM

Compound	GI50 [1]	GI50 [2]
C=CC(=O)Nc1cccc(Oc2nc(Nc3ccc(OCCN4CCOCC4)c(F)c3)nc3ccsc23)c1 [Example 135]	50 to 100 nM	< 50 nM
C=CC(=O)Nc1cccc(Oc2nc(Nc3ccc(OC4CCN(C)CC4)c(F)c3)nc3ccsc23)c1 [Example 136]	< 50 nM	< 50 nM
C=CC(=O)Nc1cccc(Oc2nc(Nc3ccc(N4CCC(N5CCCC5)CC4)c(Cl)c3)nc3ccsc23)c1 [Example 138]	< 50 nM	< 50 nM
C=CC(=O)Nc1cccc(Oc2nc(Nc3ccc(N4CCC(N5CCOCC5)CC4)c(Cl)c3)nc3ccsc23)c1 [Example 139]	< 50 nM	< 50 nM
C=CC(=O)Nc1cccc(Oc2nc(Nc3ccc(C(=O)N(C)C)c(Cl)c3)nc3ccsc23)c1 [Example 143]	50 to 100 nM	< 50 nM
C=CC(=O)Nc1cccc(Oc2nc(Nc3ccc(C(=O)N4CCN(S(=O)(=O)CC)CC4)c(Cl)c3)nc3ccsc23)c1 [Example 144]	< 50 nM	50 to 100 nM
C=CC(=O)Nc1cccc(Oc2nc(Nc3ccc(N4CCN(CCO)CC4)cn3)nc3ccsc23)c1 [Example 156]	< 50 nM	50 to 100 nM
C=CC(=O)Nc1cccc(Oc2nc(Nc3ccc(C4(N)CC4)cc3)nc3ccsc23)c1 [Example 160]	< 50 nM	< 50 nM
C=CC(=O)Nc1cccc(Oc2nc(Nc3ccc(NC(=O)N4CCN(C)CC4)cc3)nc3ccsc23)c1 [Example 172]	50 to 100 nM	< 50 nM
C=CC(=O)Nc1cccc(Oc2nc(Nc3ccc(CN4CCC4)cc3)nc3ccsc23)c1 [Example 175]	< 50 nM	< 50 nM
C=CC(=O)Nc1cccc(Oc2nc(Nc3ccc(CCO)cc3)nc3ccsc23)c1 [Example 190]	< 50 nM	< 50 nM
C=CC(=O)Nc1cccc(Oc2nc(Nc3ccc(CCN(C)C)cc3)nc3ccsc23)c1 [Example 191]	< 50 nM	< 50 nM
C=CC(=O)Nc1cccc(Oc2nc(Nc3ccc(CN4CCC(N(C)C)CC4)c(F)c3)nc3ccsc23)c1 [Example 196]	< 50 nM	50 to 100 nM
C=CC(=O)Nc1cccc(Oc2nc(Nc3ccc(CN4CCN(C)CC4)c(F)c3)nc3ccsc23)c1 [Example 197]	< 50 nM	< 50 nM
C=CC(=O)Nc1cccc(Oc2nc(Nc3ccc(NC(=O)N4CCN(C)CC4)c(F)c3)nc3ccsc23)c1 [Example 201]	< 50 nM	50 to 100 nM
C=CC(=O)Nc1cccc(Oc2nc(Nc3ccc(CN4CCN(C5CCN(C)CC5)CC4)c(Cl)c3)nc3ccsc23)c1 [Example 202]	50 to 100 nM	< 50 nM
C=CC(=O)Nc1cccc(Oc2nc(Nc3ccc(CN(C)C)cc3C)nc3ccsc23)c1 [Example 205]	< 50 nM	< 50 nM
C=CC(=O)Nc1cccc(Nc2nc(Nc3ccc(N4CCN(C(C)C)CC4)cc3)nc3ccsc23)c1 [Example 208]	< 50 nM	< 50 nM

Results, then the compound that gave them:

GI50 [1]	GI50 [2]	Compound
< 50 nM	< 50 nM	C=CC(=O)Nc1cccc(Oc2nc(Nc3ccc(N4CCN(C(C)(C)C)CC4)cc3)nc3ccsc23)c1 [Example 12]
< 50 nM	50 to 100 nM	C=CC(=O)Nc1cccc(Oc2nc(Nc3ccc(N4CCN(CCF)CC4)cc3)nc3ccsc23)c1 [Example 14]
< 50 nM	< 50 nM	C=CC(=O)Nc1cccc(Oc2nc(Nc3ccc(N4CCN(CC(F)F)CC4)cc3)nc3ccsc23)c1 [Example 15]
< 50 nM	< 50 nM	C=CC(=O)Nc1cccc(Oc2nc(Nc3ccc(N4CCN(CCOC)CC4)cc3)nc3ccsc23)c1 [Example 17]
< 50 nM	< 50 nM	C=CC(=O)Nc1cccc(Oc2nc(Nc3ccc(N4CCN(CCO)CC4)cc3)nc3ccsc23)c1 [Example 18]
< 50 nM	50 to 100 nM	C=CC(=O)Nc1cccc(Oc2nc(Nc3ccc(N4CCN(C(=O)N5CCOCC5)CC4)cc3)nc3ccsc23)c1 [Example 22]
< 50 nM	< 50 nM	C=CC(=O)Nc1cccc(Oc2nc(Nc3ccc(N4CC(C)N(C)C(C)C4)cc3)nc3ccsc23)c1 (stereo not shown) [Example 27]
< 50 nM	< 50 nM	C=CC(=O)Nc1cccc(Oc2nc(Nc3ccc(N4CCC(n5ccnc5)C4)cc3)nc3ccsc23)c1 (stereo not shown) [Example 35]
< 50 nM	< 50 nM	C=CC(=O)Nc1cccc(Oc2nc(Nc3ccc(N4CCC(N(C)C)CC4)cc3)nc3ccsc23)c1 [Example 38]
< 50 nM	< 50 nM	C=CC(=O)Nc1cccc(Oc2nc(Nc3ccc(N4CCC(C(=O)N(C)C)CC4)cc3)nc3ccsc23)c1 [Example 45]
< 50 nM	< 50 nM	C=CC(=O)Nc1cccc(Oc2nc(Nc3ccc(N4CCC(n5ccnc5)CC4)cc3)nc3ccsc23)c1 [Example 46]
< 50 nM	< 50 nM	C=CC(=O)Nc1cccc(Oc2nc(Nc3ccc(N4CCC(N5CCOCC5)CC4)cc3)nc3ccsc23)c1 [Example 49]
< 50 nM	< 50 nM	C=CC(=O)Nc1cccc(Oc2nc(Nc3ccc(C(C)=O)cc3)nc3ccsc23)c1 [Example 77]
< 50 nM	< 50 nM	C=CC(=O)Nc1cccc(Oc2nc(Nc3ccc(NC(=O)CCN4CCCC4)cc3)nc3ccsc23)c1 [Example 92]
< 50 nM	< 50 nM	C=CC(=O)Nc1cccc(Oc2nc(Nc3ccc(CCN4CCCCC4)cc3)nc3ccsc23)c1 [Example 98]
< 50 nM	50 to 100 nM	C=CC(=O)Nc1cccc(Oc2nc(Nc3ccc(/C=C/CN4CCCCC4)cc3)nc3ccsc23)c1 [Example 102]
< 50 nM	< 50 nM	C=CC(=O)Nc1cccc(Oc2nc(Nc3ccc(OCCN4CCOCC4)c(OC)c3)nc3ccsc23)c1 [Example 116]
< 50 nM	50 to 100 nM	C=CC(=O)Nc1cccc(Oc2nc(Nc3ccc(C(=O)NCCN4CCCC4)cc3OC)nc3ccsc23)c1 [Example 117]
< 50 nM	50 to 100 nM	C=CC(=O)Nc1cccc(Oc2nc(Nc3ccc(C(=O)NC4CCN(C)CC4)c(OC)c3)nc3ccsc23)c1 [Example 118]
< 50 nM	< 50 nM	C=CC(=O)Nc1cccc(Oc2nc(Nc3ccc(N4CCN(C(=O)CN(C)C)CC4)c(F)c3)nc3ccsc23)c1 [Example 119]
< 50 nM	< 50 nM	C=CC(=O)Nc1cccc(Oc2nc(Nc3ccc(N4CCC(N5CCCC5)CC4)c(F)c3)nc3ccsc23)c1 [Example 124]
< 50 nM	< 50 nM	C=CC(=O)Nc1cccc(Oc2nc(Nc3ccc(N4CCC(N5CCOCC5)CC4)c(F)c3)nc3ccsc23)c1 [Example 126]
< 50 nM	< 50 nM	C=CC(=O)Nc1cccc(Oc2nc(Nc3ccc(OCCN(C)C)c(F)c3)nc3ccsc23)c1 [Example 132]
< 50 nM	< 50 nM	C=CC(=O)Nc1cccc(Oc2nc(Nc3ccc(OCCN(CC)CC)c(F)c3)nc3ccsc23)c1 [Example 133]
< 50 nM	< 50 nM	C=CC(=O)Nc1cccc(Oc2nc(Nc3ccc(OCCN4CCN(C)CC4)c(F)c3)nc3ccsc23)c1 [Example 134]

Source: patent USRE46511E1, “Fused pyrimidine derivatives for inhibition of tyrosine kinase activity” (HANMI SCIENCE CO., LTD., priority 2010, dated 2017)
